Assay results taken from US10077436B2, “Beta-glucosidase enzymes for increased biomass saccharification” (Edeniq, Inc., priority 2013, dated 2018).

Experiments:
Assay type in all cases: biochemical
[1] = test system: S-BG (Novozymes SP188 from Sigma), commercial beta-glucosidase; assay: BG kinetics, cellobiose hydrolysis assay (HPLC) with glucose as competitive inhibitor, S-BG; settings: cellobiose substrate, pH 4.8, 50° C.
Text: (§1) The kinetic properties of beta glucosidase are important for cellulosic hydrolysis, since in commercial situations a wide range of substrate concentrations and different product inhibition conditions will be encountered. In this example, a Michaelis-Menten kinetics model was used to describe BG kinetics. To determine these kinetic properties, BG activity assays using standard substrates pNPG and cellobiose were employed. yEdQ745-BG (wild type) and yEdQ885-BG (improved), were compared with two commercial BGs, A-BG (Accellerase®) BG from Dupont) and S-BG (Novozymes SP188 from Sigma).
(§2) BG activity assay using cellobiose is the other standard assay to measure BG or cellobiase activity, which utilizes hydrolysis of cellobiose by cellobiase into two molecules of glucose, the last step of enzymatic hydrolysis of cellulose. One cellobiase unit (commonly termed as CBU) is defined as the amount of enzyme that converts […] of cellobiose or produces 2 μmol of glucose per min. Briefly, to determine BG activity, 25 μL of diluted enzyme in 50 mM citrate buffer (pH 4.8) equilibrated to 50° C. was mixed with 25 μL cellobiose (or cellobiose/glucose mixture for the kinetic study) to start the reaction. The mixture was incubated at 50° C. for 10 min, and the reaction was terminated by incubating the mixture at 99° C. for 5 min. Different methods are available to measure the glucose produced in the assays. For the kinetic study, HPLC was used.
To determine kinetic properties using cellobiose substrate, duplicate assays with cellobiose concentrations ranging from 0.47 to 15 mM and glucose concentrations of 0, 0.9, 4.5, 6.75, and 8.1 (for A-BG) or 9 (for all the other three BGs) g/L were performed. As for pNPG substrate, the range of cellobiose substrate concentration was chosen to show detectable activity at the lowest substrate concentration and saturation stage at high substrate concentration. However, in contrast to the pNPG substrate, when there was still some activity left at glucose concentration up to 36 g/L, most of the BG activity was lost at an inhibitor level of 9 g/L when cellobiose substrate was used. […] It should also be noted that colorimetric glucose assay cannot provide activity results for inhibitory glucose levels above 0.9 g/L after several trials. Therefore, HPLC measurements were used for kinetic studies using cellobiose substrate. It should be pointed out that the HPLC method may not be sensitive enough either to capture BG activity under more severe glucose inhibition conditions than 9 g/L of glucose. Moreover, theoretically there are two ways to measure BG activity by HPLC when cellobiose is used as the substrate: tracking consumption of cellobiose or tracking production of glucose. However, as shown by the example of one set of results from S-BG in Table 3, tracking glucose is problematic due to measurement sensitivity. In Table 3, A % is defined as follows and is an indicator of measurement sensitivity, since the difference of substrate or product concentrations before and after reaction was used to determine BG activity. Δ%=(start conc. of cellobiose−end conc. of cellobiose)/start conc. of cellobiose×100% (3) Δ%=(end conc. of glucose−start conc. of glucose)/start conc. of glucose×100% (4)
With increasing inhibitor (glucose) level, Δ% is decreasing. For the case of tracking glucose, Δ% was too small to be reliable when 4.5 g/L of glucose was added at the beginning. […] Thus, the approach of tracking cellobiose was chosen due to its higher detection sensitivity. In the substrate range used to determine kinetic parameters (0.47 to 30 mM for A-BG and 0.47 to 15 mM for the other three BGs), the detection sensitivity is reasonable.
A similar simultaneous nonlinear regression method based on the competitive inhibition equation expressed in Equation (1) was used to determine kinetic parameters of BG towards cellobiose. […]

[2] = test system: A-BG (Accellerase® BG from DuPont), commercial beta-glucosidase; assay: BG kinetics, cellobiose hydrolysis assay (HPLC) with glucose as competitive inhibitor, A-BG; settings: cellobiose substrate, pH 4.8, 50° C.
Text: (§3) The kinetic properties of beta glucosidase are important for cellulosic hydrolysis, since in commercial situations a wide range of substrate concentrations and different product inhibition conditions will be encountered. In this example, a Michaelis-Menten kinetics model was used to describe BG kinetics.
as §2
To determine kinetic properties using cellobiose substrate, duplicate assays with cellobiose concentrations ranging from 0.47 to 15 mM and glucose concentrations of 0, 0.9, 4.5, 6.75, and 8.1 (for A-BG) or 9 (for all the other three BGs) g/L were performed. As for pNPG substrate, the range of cellobiose substrate concentration was chosen to show detectable activity at the lowest substrate concentration and saturation stage at high substrate concentration. […] Moreover, theoretically there are two ways to measure BG activity by HPLC when cellobiose is used as the substrate: tracking consumption of cellobiose or tracking production of glucose. […] In Table 3, A % is defined as follows and is an indicator of measurement sensitivity, since the difference of substrate or product concentrations before and after reaction was used to determine BG activity. Δ%=(start conc. of cellobiose−end conc. of cellobiose)/start conc. of cellobiose×100% (3) Δ%=(end conc. of glucose−start conc. of glucose)/start conc. of glucose×100% (4)
A similar simultaneous nonlinear regression method based on the competitive inhibition equation expressed in Equation (1) was used to determine kinetic parameters of BG towards cellobiose.
The specific activity used here was determined by the initial velocity approach that is required by implementing Michaelis-Menten model (Copeland, 2000). The specific activity was determined by measuring consumption of cellobiose in the first 10 min of reaction and was expressed as μmol min^−1 mg^−1, where mg^−1 means per mg of total protein. The relative activity was determined based on the maximum activity obtained in the absence of initial glucose inhibition.
(§4) The above experimental data were fit in the competitive inhibition model as expressed in Equation (1) by simultaneous nonlinear regression.

[3] = test system: S-BG (Novozymes SP188 from Sigma), commercial beta-glucosidase; assay: BG kinetics, pNPG hydrolysis assay with glucose as competitive inhibitor, S-BG; settings: pNPG substrate, pH 5.0, 50° C.
Text: as §1
(§5) BG activity assay using pNPG is one of the two commonly used standard assays to measure BG activity, which utilizes hydrolysis of p-nitrophenyl-β-D-glucopyranoside (pNPG) by BG into a yellow colored product, p-nitrophenol (pNP), that has a strong absorbance at 405 nm. One pNPG unit is defined as the amount of enzyme that produces 1 μmol of pNP per min. Briefly, to determine BG activity, 25 μL of diluted enzyme in 200 mM sodium acetate buffer (pH 5.0) was mixed with 25 μL of the same buffer and 25 μL of RO water (or glucose solution for the kinetic study) and the mixture was preincubated at 50° C. for 5 min. The reaction was initiated by adding 25 μL of 10 mM pNPG in 200 mM sodium acetate buffer (pH 5.0) and the mixture was incubated at 50° C. for 10 min. The reaction was then terminated by adding 100 μL of 0.25 M sodium carbonate, and the amount of pNP produced was determined by measuring absorbance at 405 nm using a predetermined calibration curve.
The range of substrate concentration was chosen to show detectable activity at the lowest concentration and saturation stage at high substrate concentration. The upper limit of inhibitor (glucose) level was chosen to get as close as possible to the real conditions during saccharification (˜4% w/v glucose) and have a detectable residual activity.
(§6) To determine the kinetic properties, a competitive inhibition mechanism was hypothesized as proposed in the literature (Chauve et al, 2010; Krogh et al, 2010). The Michaelis-Menten equation with the competitive inhibition term can be expressed in Equation (1), where [S] is the substrate concentration (mM), [I] is the inhibitor concentration (mM), V is the rate of product formation (mM/min), Vmax is the maximal rate of product formation (mM/min), Km is the Michaelis-Menten constant and Ki is the inhibition constant. The turnover number, Kcat, can be calculated by Equation (2), where [Et] is the total amount of enzyme.
(§7) Conventionally, linearization methods can be used to determine the kinetic parameters based on Equation (1). Three common linear plots used are Lineweaver-Burke, Eadie-Hofstee and Hanes plots (Rogers and Gibon, 2009). However, these linearized versions of the Michaelis-Menten equation often produce substantial errors in parameter estimation. […] All of the activity data at different substrate levels and different inhibitor levels were fit simultaneously according to the full nonlinear equation for competitive enzyme inhibition as expressed in Equation (1). Thus, Vmax, Km and Ki can be determined simultaneously from this fitting process, and Km/Ki can then be calculated. Kcat can be obtained by Equation (2) and Kcat/Km can be calculated accordingly.
The above experimental data were fit in the competitive inhibition model as expressed in Equation (1) by simultaneous nonlinear regression. The order of maximum velocity (Vmax) is A-BG>yEdQ885-BG>S-BG≈yEdQ745-BG. […] Nevertheless, the in-house BGs have much higher dissociation constant for inhibitor (Ki), indicating higher tolerance to product inhibition. Consistent with Vmax, the order of turnover number (Kcat) is A-BG>yEdQ885-BG>S-BG≈yEdQ745-BG. With much lower Km and much higher Kcat, A-BG has a considerably higher catalytic efficiency (Kcat/Km) than the other enzymes. The catalytic efficiency of S-BG and yEdQ885-BG is quite close, which is higher than that of yEdQ745-BG. […]

[4] = test system: A-BG (Accellerase® BG from DuPont), commercial beta-glucosidase; assay: BG kinetics, pNPG hydrolysis assay with glucose as competitive inhibitor, A-BG; settings: pNPG substrate, pH 5.0, 50° C.
Description: as §3
as §5, with “One” for “BG activity assay using pNPG is one of the two commonly used standard assays to measure BG activity, which utilizes hydrolysis of p-nitrophenyl-β-D-glucopyranoside (pNPG) by BG into a yellow colored product, p-nitrophenol (pNP), that has a strong absorbance at 405 nm. One”
The range of substrate concentration was chosen to show detectable activity at the lowest concentration and saturation stage at high substrate concentration.
as §6, §7, §4

Compound | Kcat [1] | Kcat/Km [1] | Km [1] | Vmax [1] | Kcat [2] | Kcat/Km [2] | Km [2] | Vmax [2] | Kcat [3] | Kcat/Km [3] | Km [3] | Vmax [3] | Kcat [4] | Kcat/Km [4] | Km [4] | Vmax [4]
OC[C@H]1O[C@@H](O[C@H]2[C@H](O)[C@@H](O)C(O)O[C@@H]2CO)[C@H](O)[C@@H](O)[C@@H]1O (stereo partly shown) [cellobiose] | 15.54 s⁻¹ | 9773.7 M⁻¹ s⁻¹ | 1590 ± 410 µM | 7.77 ± 0.56 units/mg | 67.803 s⁻¹ | 10336 M⁻¹ s⁻¹ | 6560 ± 890 µM | 51.89 ± 2.53 units/mg | – | – | – | – | – | – | – | –
O=[N+]([O-])c1ccc(O[C@@H]2O[C@H](CO)[C@@H](O)[C@H](O)[C@H]2O)cc1 [pNPG, p-nitrophenyl-β-D-glucopyranoside] | – | – | – | – | – | – | – | – | 8.4 s⁻¹ | 20000 M⁻¹ s⁻¹ | 420 ± 60 µM | 4.20 ± 0.14 U/mg | 44.9232 s⁻¹ | 453769.7 M⁻¹ s⁻¹ | 99 ± 12 µM | 34.38 ± 0.67 U/mg
